From PMC12430708, “Design, Synthesis, and In Vitro and In Silico Study of New Hybrid 1-(2-(4-Arylthiazol-2-yl)hydrazineylidene)-5,6-dihydro-4H-pyrrolo[3,2,1-ij]quinolin-2-ones as Factor Xa and Factor XIa Inhibitors” (Molecules, 2025)

Tests used:
Assay type in all cases: biochemical
factor Xa = factor Xa (Homo sapiens, UniProt P00742); test: Inhibition of factor Xa, hydrolysis kinetics of chromogenic substrate S2765; conditions: for inhibition at 30 µM / Percent Inhibition at 30 μM ± SEM (n = 3), Xa: 30 μM compound, factor Xa 5 nmol/L, S2765 200 µmol/L, negative values denote percent activation; for inhibition at 30 µM: read-out: Percent Inhibition at 30 μM ± SEM (n = 3), Xa; for IC50: substrate S2765, buffer solution, read-out: IC50, μM ± SEM (n = 3), Xa
Source text: (§1) The inhibition of the blood coagulation factors Xa and XIa or plasmin by the synthesized compounds 5a–o was studied by measuring the kinetics of hydrolysis of substrates specific for each of these enzymes in the presence of the compounds. A specific low-molecular-weight chromogenic substrate S2765 (Z-D-Arg-Gly-Arg-pNA·2HCl) was used in the case of factor Xa, substrate S2366 (pyroGlu-Pro-Arg-pNA·HCl) was used for factor XIa, and S2288 (H-D-Ile-Pro-Arg-pNA·2HCl) was used for plasmin (all from Chromogenix, West Chester, PA, USA). A buffer containing 140 mM NaCl, 20 mM HEPES, and 0.1% PEG 6000 (pH 8.0) was placed in the wells of a 96-well plate, followed by the addition of factor Xa or XIa (final concentration 5 nmol·L^−1) or plasmin (final concentration 10 nmol L^−1); the substrate S2765, S2366, or S2288 (final concentration 200 µmol·L^−1); and a solution of the test compound in DMSO (final concentration 30 µmol·L^−1, the DMSO content in the well was no more than 2%). The kinetics of the formation of p-nitroaniline was measured using an Eppendorf PlateReader AF2200 microplate reader (Eppendorf, Hamburg, Germany) by the absorption of light with a wavelength of 405 nm. The initial rate of substrate degradation was determined from the initial slope of the 4-nitroaniline formation curve.
(§2) The absolute value of negative inhibition values denotes percent activation.
(§3) The data obtained were processed using the GraphPad Prism 8.0.1 (244) and OriginPro 8 software.

factor XIa = factor XIa (Homo sapiens, UniProt P03951); test: Inhibition of factor XIa, hydrolysis kinetics of chromogenic substrate S2366; conditions: for inhibition at 30 µM / Percent Inhibition at 30 μM ± SEM (n = 3), XIa: 30 μM compound, factor XIa 5 nmol/L, S2366 200 µmol/L, negative values denote percent activation; for inhibition at 30 µM: read-out: Percent Inhibition at 30 μM ± SEM (n = 3), XIa; for IC50: substrate S2366, buffer solution, read-out: IC50, μM ± SEM (n = 3), XIa
Source text: as §1, §2, §3

plasmin = plasmin (Homo sapiens, UniProt P00747); test: Inhibition of plasmin, hydrolysis kinetics of chromogenic substrate S2288 (selectivity); conditions: 30 μM compound, plasmin 10 nmol/L, S2288 200 µmol/L; for inhibition at 30 µM: read-out: Percent Inhibition at 30 μM ± SEM (n = 3), Plasmin
Source text: as §1, §2, §3

factor Xa, sequence (P00742 235-488 limits assumed): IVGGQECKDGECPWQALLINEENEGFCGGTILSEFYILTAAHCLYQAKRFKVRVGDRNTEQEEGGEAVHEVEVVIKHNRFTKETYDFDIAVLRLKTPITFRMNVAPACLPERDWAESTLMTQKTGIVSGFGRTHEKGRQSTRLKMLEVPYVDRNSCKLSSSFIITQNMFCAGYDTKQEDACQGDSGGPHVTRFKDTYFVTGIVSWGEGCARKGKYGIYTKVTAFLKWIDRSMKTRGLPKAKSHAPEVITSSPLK
factor Xa, sequence (P00742 41-179 partner limits assumed): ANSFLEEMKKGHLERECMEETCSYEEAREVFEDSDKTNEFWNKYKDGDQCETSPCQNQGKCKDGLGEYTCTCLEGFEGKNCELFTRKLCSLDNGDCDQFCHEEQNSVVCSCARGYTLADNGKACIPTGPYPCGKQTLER
plasmin, sequence (P00747 581-810 limits assumed, species assumed): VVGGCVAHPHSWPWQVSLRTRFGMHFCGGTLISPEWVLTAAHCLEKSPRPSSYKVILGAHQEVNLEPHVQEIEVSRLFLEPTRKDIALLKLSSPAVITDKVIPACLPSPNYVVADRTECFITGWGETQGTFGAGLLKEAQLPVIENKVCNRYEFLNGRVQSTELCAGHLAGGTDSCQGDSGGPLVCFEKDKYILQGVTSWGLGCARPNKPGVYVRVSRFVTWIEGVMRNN
plasmin, sequence (P00747 97-580 partner limits assumed, species assumed): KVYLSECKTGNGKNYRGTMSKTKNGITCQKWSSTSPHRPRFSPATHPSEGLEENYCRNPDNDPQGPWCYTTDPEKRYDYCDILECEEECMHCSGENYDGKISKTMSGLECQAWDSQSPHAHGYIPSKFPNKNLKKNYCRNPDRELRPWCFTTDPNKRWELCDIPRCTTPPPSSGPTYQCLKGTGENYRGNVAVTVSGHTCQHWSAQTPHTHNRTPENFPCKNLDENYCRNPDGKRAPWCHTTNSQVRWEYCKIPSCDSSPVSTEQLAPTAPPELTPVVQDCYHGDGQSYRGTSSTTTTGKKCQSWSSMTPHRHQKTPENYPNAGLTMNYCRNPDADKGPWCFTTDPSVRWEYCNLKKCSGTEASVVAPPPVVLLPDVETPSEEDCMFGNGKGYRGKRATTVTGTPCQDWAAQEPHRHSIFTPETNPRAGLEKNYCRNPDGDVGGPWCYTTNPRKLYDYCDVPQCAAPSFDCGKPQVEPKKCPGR
factor XIa, sequence (P03951 388-625 limits assumed): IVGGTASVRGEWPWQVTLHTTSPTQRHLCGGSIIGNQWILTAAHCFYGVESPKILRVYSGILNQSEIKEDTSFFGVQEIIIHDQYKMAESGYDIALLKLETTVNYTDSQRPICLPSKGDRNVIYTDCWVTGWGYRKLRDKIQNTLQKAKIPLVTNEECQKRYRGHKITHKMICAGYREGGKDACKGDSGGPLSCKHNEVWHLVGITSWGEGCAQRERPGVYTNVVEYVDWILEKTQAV
factor XIa, sequence (P03951 19-387 partner limits assumed): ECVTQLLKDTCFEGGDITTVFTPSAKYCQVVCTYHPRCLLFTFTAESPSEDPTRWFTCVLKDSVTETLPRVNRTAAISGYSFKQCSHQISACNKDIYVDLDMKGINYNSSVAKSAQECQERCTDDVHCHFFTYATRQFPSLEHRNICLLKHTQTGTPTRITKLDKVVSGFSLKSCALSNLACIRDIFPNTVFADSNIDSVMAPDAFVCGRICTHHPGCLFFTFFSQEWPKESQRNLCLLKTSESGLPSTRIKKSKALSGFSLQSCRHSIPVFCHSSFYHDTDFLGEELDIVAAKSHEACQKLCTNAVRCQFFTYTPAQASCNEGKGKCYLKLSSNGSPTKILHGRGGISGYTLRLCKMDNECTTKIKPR

Row | SMILES | inhibition at 30 µM (factor Xa) [%] | inhibition at 30 µM (factor XIa) [%] | Percent Inhibition at 30 μM ± SEM (n = 3), Xa (factor Xa) [%] | IC50 (factor Xa) [µM] | Percent Inhibition at 30 μM ± SEM (n = 3), XIa (factor XIa) [%] | IC50 (factor XIa) [µM] | Percent Inhibition at 30 μM ± SEM (n = 3), Plasmin (plasmin) [%] | inhibition at 30 µM (plasmin) [%]
1 | COc1ccc(-c2csc(N/N=C3\C(=O)N4c5c3cc(Cl)cc5C(C)CC4(C)C)n2)cc1 (stereo not drawn) [5e, (Z)-8-Chloro-1-(2-(4-(4-methoxyphenyl)thiazol-2-yl)hydrazineylidene)-4,4,6-trimethyl-5,6-dihydro-4H-pyrrolo[3,2,1-ij]quinolin-2(1H)-one] | -8 ± 10 | -2 ± 11 | – | – | – | – | – | –
2 | CC1(c2ccccc2)CC(C)(C)N2C(=O)/C(=N\Nc3nc(-c4ccc(Cl)cc4)cs3)c3cc(F)cc1c32 (stereo not drawn) [5g, (Z)-1-(2-(4-(4-Chlorophenyl)thiazol-2-yl)hydrazineylidene)-8-fluoro-4,4,6-trimethyl-6-phenyl-5,6-dihydro-4H-pyrrolo[3,2,1-ij]quinolin-2(1H)-one] | 51 ± 18 | 76 ± 3 | – | – | – | – | – | –
3 | COc1cccc(-c2csc(N/N=C3\C(=O)N4c5c3cc(F)cc5C(C)(c3ccc(Cl)cc3)CC4(C)C)n2)c1 (stereo not drawn) [5n, (Z)-6-(4-Chlorophenyl)-8-fluoro-1-(2-(4-(3-methoxyphenyl)thiazol-2-yl)hydrazineylidene)-4,4,6-trimethyl-5,6-dihydro-4H-pyrrolo[3,2,1-ij]quinolin-2(1H)-one] | -2 ± 3 | -19 ± 8 | – | – | – | – | – | –
4 | CC1(c2ccc(Cl)cc2)CC(C)(C)N2C(=O)/C(=N\Nc3nc(-c4ccccc4)cs3)c3cc(Br)cc1c32 (stereo not drawn) [5o, (Z)-8-Bromo-6-(4-chlorophenyl)-4,4,6-trimethyl-1-(2-(4-phenylthiazol-2-yl)hydrazineylidene)-5,6-dihydro-4H-pyrrolo[3,2,1-ij]quinolin-2(1H)-one] | -4 ± 6 | -11 ± 12 | – | – | – | – | – | –
5 | CC1(c2ccc(Cl)cc2)CC(C)(C)N2C(=O)/C(=N\Nc3nc(-c4ccc(F)cc4)cs3)c3cc(F)cc1c32 (stereo not drawn) [5l, (Z)-6-(4-Chlorophenyl)-8-fluoro-1-(2-(4-(4-fluorophenyl)thiazol-2-yl)hydrazineylidene)-4,4,6-trimethyl-5,6-dihydro-4H-pyrrolo[3,2,1-ij]quinolin-2(1H)-one] | -4 ± 3 | -11 ± 7 | – | – | – | – | – | –
6 | CC1(c2ccc(Cl)cc2)CC(C)(C)N2C(=O)/C(=N\Nc3nc(-c4cccc(Cl)c4)cs3)c3cc(F)cc1c32 (stereo not drawn) [5m, (Z)-6-(4-Chlorophenyl)-1-(2-(4-(3-chlorophenyl)thiazol-2-yl)hydrazineylidene)-8-fluoro-4,4,6-trimethyl-5,6-dihydro-4H-pyrrolo[3,2,1-ij]quinolin-2(1H)-one] | -17 ± 11 | -14 ± 7 | – | – | – | – | – | –
7 | COc1ccc(-c2csc(N/N=C3\C(=O)N4c5c3cc(Cl)cc5C(C)(c3ccc(Cl)cc3)CC4(C)C)n2)cc1 (stereo not drawn) [5j, (Z)-8-Chloro-6-(4-chlorophenyl)-1-(2-(4-(4-methoxyphenyl)thiazol-2-yl)hydrazineylidene)-4,4,6-trimethyl-5,6-dihydro-4H-pyrrolo[3,2,1-ij]quinolin-2(1H)-one] | -3 ± 3 | -3 ± 6 | – | – | – | – | – | –
8 | COc1cccc(-c2csc(N/N=C3\C(=O)N4c5c3cc(F)cc5C(C)CC4(C)C)n2)c1 (stereo not drawn) [5f, (Z)-8-Fluoro-1-(2-(4-(3-methoxyphenyl)thiazol-2-yl)hydrazineylidene)-4,4,6-trimethyl-5,6-dihydro-4H-pyrrolo[3,2,1-ij]quinolin-2(1H)-one] | -25 ± 9 | -11 ± 9 | – | – | – | – | – | –
9 | CC1(c2ccc(Cl)cc2)CC(C)(C)N2C(=O)/C(=N\Nc3nc(-c4ccc(Cl)cc4)cs3)c3cc(F)cc1c32 (stereo not drawn) [5k, (Z)-6-(4-Chlorophenyl)-1-(2-(4-(4-chlorophenyl)thiazol-2-yl)hydrazineylidene)-8-fluoro-4,4,6-trimethyl-5,6-dihydro-4H-pyrrolo[3,2,1-ij]quinolin-2(1H)-one] | -12 ± 11 | 37 ± 8 | – | – | – | – | – | –
10 | COc1cc2c3c(c1)C(C)CC(C)(C)N3C(=O)/C2=N\Nc1nc(-c2ccc(Cl)cc2)cs1 (stereo not drawn) [5a, (Z)-1-(2-(4-(4-Chlorophenyl)thiazol-2-yl)hydrazineylidene)-8-methoxy-4,4,6-trimethyl-5,6-dihydro-4H-pyrrolo[3,2,1-ij]quinolin-2(1H)-one] | -30 ± 7 | -13 ± 11 | – | – | – | – | – | –
11 | CC1(c2ccccc2)CC(C)(C)N2C(=O)/C(=N\Nc3nc(-c4ccc(Cl)cc4)cs3)c3cc(Br)cc1c32 (stereo not drawn) [5h, (Z)-8-Bromo-1-(2-(4-(4-chlorophenyl)thiazol-2-yl)hydrazineylidene)-4,4,6-trimethyl-6-phenyl-5,6-dihydro-4H-pyrrolo[3,2,1-ij]quinolin-2(1H)-one] | 98 to 100 | 98 to 100 | 99 ± 1 | 5.75 ± 0.02 | 100 | 7.66 ± 0.08 | 8 ± 2 | < 10
12 | COc1ccc(-c2csc(N/N=C3\C(=O)N4c5c3cccc5C(C)(c3ccc(Cl)cc3)CC4(C)C)n2)cc1 (stereo not drawn) [5i, (Z)-6-(4-Chlorophenyl)-1-(2-(4-(4-methoxyphenyl)thiazol-2-yl)hydrazineylidene)-4,4,6-trimethyl-5,6-dihydro-4H-pyrrolo[3,2,1-ij]quinolin-2(1H)-one] | -21 ± 9 | -14 ± 10 | – | – | – | – | – | –
13 | COc1cc2c3c(c1)C(C)CC(C)(C)N3C(=O)/C2=N\Nc1nc(-c2ccc(F)cc2)cs1 (stereo not drawn) [5b, (Z)-1-(2-(4-(4-Fluorophenyl)thiazol-2-yl)hydrazineylidene)-8-methoxy-4,4,6-trimethyl-5,6-dihydro-4H-pyrrolo[3,2,1-ij]quinolin-2(1H)-one] | -30 ± 10 | -6 ± 10 | – | – | – | – | – | –
14 | CC1CC(C)(C)N2C(=O)/C(=N\Nc3nc(-c4ccc(F)cc4)cs3)c3cc(Cl)cc1c32 (stereo not drawn) [5d, (Z)-8-Chloro-1-(2-(4-(4-fluorophenyl)thiazol-2-yl)hydrazineylidene)-4,4,6-trimethyl-5,6-dihydro-4H-pyrrolo[3,2,1-ij]quinolin-2(1H)-one] | 98 to 100 | 98 to 100 | 98 ± 1 | 5.43 ± 0.02 | 99 | 7.7 ± 0.05 | 5 ± 1 | < 10
15 | COc1cc2c3c(c1)C(C)CC(C)(C)N3C(=O)/C2=N\Nc1nc(-c2ccc(Br)cc2)cs1 (stereo not drawn) [5c, (Z)-1-(2-(4-(4-Bromophenyl)thiazol-2-yl)hydrazineylidene)-8-methoxy-4,4,6-trimethyl-5,6-dihydro-4H-pyrrolo[3,2,1-ij]quinolin-2(1H)-one] | -40 ± 10 | -7 ± 8 | – | – | – | – | – | –
